{"source": "paper PMC7451656", "about": "“In vitro and in vivo growth inhibitory activities of cryptolepine hydrate against several Babesia species and Theileria equi” (PLoS Neglected Tropical Diseases, 2020)", "key": {"[1]": {"tested_on": "B. bigemina", "test": "Growth inhibitory fluorescence assay in vitro, B. bigemina", "format": "cell-based, Babesia bigemina", "method": "(§1) Texas strain of B. bovis and Argentina strain of B. bigemina were grown using bovine red blood cells (RBCs, collected from cattle farm of Obihiro University of Agriculture and Veterinary Medicine and stored at 4°C) in medium 199 (M199; Sigma-Aldrich, Tokyo, Japan) supplemented with 40% bovine serum, while RPMI 1640 medium (Sigma-Aldrich, Tokyo, Japan) was used for B. divergens (German strain) cultivation. The United States Department of Agriculture (USDA) strain of T. equi was grown in equine RBCs (collected from horse farm of Obihiro University of Agriculture and Veterinary Medicine and stored at 4°C) in M199 supplemented with 40% equine serum, and hypoxanthine (MP Biomedicals, Santa Ana, CA, USA) at a final concentration of 13.6 μg/ml was used as a vital supplement, while GIT medium was used for B. caballi (USDA strain) cultivation. Sixty μg/ml of streptomycin, 0.15 μg/ml of amphotericin B, and 60 U/ml of penicillin G (Sigma-Aldrich, Tokyo, Japan) were added to all media to prevent fungal and bacterial contamination. All parasite cultures were maintained for a long time in a microaerophilic stationary-phase culture system.\n(§2) The inhibition assay was conducted according to the previously described protocol. Briefly, different concentrations of CRY, DA, CF, and AQ were added in triplicate in 96-well plates with 1% parasitemia and 2.5% HCT for B. bovis and B. bigemina and 5% HCT for B. divergens, B. caballi, and T. equi. The plates were incubated in a humidified incubator with 5% CO2, 5% O2, and 90% N2 for 96 h without changing the media. After 96 h, 100 μl of lysis buffer containing 2 × SG1 was directly added to each well and the plates were then wrapped in aluminum foil for protection from direct light and incubated for 6 h at room temperature. Afterward, the fluorescence was measured using a fluorescence spectrophotometer (Fluoroskan Ascent, Thermo Fisher Scientific, USA) at 485 nm excitation and 518 nm emission wavelengths. The relative fluorescence value was set to percentages after subtracting the mean values of the negative control. The experiment was repeated thrice.\n(§3) The IC50 values of CRY, DA, CF, and AQ were determined using the nonlinear regression curve fit in GraphPad Prism (GraphPad Software Inc., San Diego, CA, USA). Combination index (CI) values for the drug combination were calculated using CompuSyn software, and the degree of synergism was determined as the weighted average of CI values using a formula [(1 x IC50) + (2 x IC75) + (3 x IC90) + (4 x IC95)]/10 [30]. The differences in parasitemia and hematology profiles in the B. microti–infected mice were analyzed using an independent Student’s t-test and one-way ANOVA test using GraphPad Prism version 5.0 for Windows (GraphPad Software Inc., San Diego, CA, USA). A P-value < 0.05 was considered statistically significant."}, "[2]": {"tested_on": "T. equi", "test": "Growth inhibitory fluorescence assay in vitro, T. equi", "format": "cell-based, Theileria equi", "method": "as §1, §2, §3"}, "[3]": {"tested_on": "B. bovis", "test": "Growth inhibitory fluorescence assay in vitro, B. bovis", "format": "cell-based, Babesia bovis", "method": "as §1, §2, §3"}, "[4]": {"tested_on": "human foreskin fibroblast (HFF) cell line", "test": "cells", "format": "cell-based", "settings": "for EC50: cell viability, HFF, 24 h, CCK-8", "method": "(§4) Madin–Darby bovine kidney (MDBK) (ECACC), mouse embryonic fibroblast (NIH/3T3 ATCC CRL-1658) and Human foreskin fibroblast (HFF HFF-1 ATCC SCRC-1041) cell lines were recovered from -80°C stock and cultured continuously in our laboratory at 37°C in a humidified incubator with 5% CO2. In 75 cm^2 culture flasks, NIH/3T3 and HFF cell lines were maintained with Dulbecco’s Modified Eagle’s Medium (DMEM; Gibco, Grand Island, NY, USA), while the MDBK cell line was maintained with Minimum Essential Medium Eagle (MEM; Gibco). Ten percent fetal bovine serum, 1% glutamine, and 0.5% penicillin/streptomycin (Gibco) were added to all media and the cells were stained with 4, 6-diamidino-2-phenylindole dihydrochloride (DAPI; Sigma-Aldrich, St. Louis, MO, USA) to ensure that they were free from mycoplasma contamination. Afterward, the cells were washing twice with Dulbecco’s phosphate-buffered saline and TrypLE Express (Gibco) was used for cell detachment from the culture flask. Finally, Neubauer improved C-Chip (NanoEntek Inc., Seoul, Korea) was used for counting the viable cells after staining with 0.4% trypan blue solution.\n(§5) The cytotoxicity assay was performed in accordance with the previously described protocol. Briefly, the assay was carried out using 96-well plates at 37 °C in a humidified incubator with 5% CO2, 100 μl of cells at a density of 5 x 10^4 cells/ml was seeded per well and allowed to attach to the plate for 24 h. Ten microliters of twofold drug dilutions was added to each well to a final concentration of 0.781 to 100 μM in triplicate and incubated for another 24 h. Ten μl of Cell Counting Kits-8 (CCK-8; Dojindo, Japan) was added to each well and incubated for another 3 h, and the absorbance was measured at 450 nm using a microplate reader."}, "[5]": {"tested_on": "Madin–Darby bovine kidney (MDBK) cell line", "test": "cells", "format": "cell-based", "settings": "for EC50: MDBK, 24 h, cell viability, CCK-8", "method": "as §4, §5"}, "[6]": {"tested_on": "mouse embryonic fibroblast (NIH/3T3) cell line", "test": "cells", "format": "cell-based", "settings": "for EC50: cell viability, NIH/3T3, 24 h, CCK-8", "method": "as §4, §5"}, "[7]": {"tested_on": "B. caballi", "test": "Growth inhibitory fluorescence assay in vitro, B. caballi", "format": "cell-based, Babesia caballi", "method": "as §1, §2, §3"}, "[8]": {"tested_on": "B. divergens", "test": "Growth inhibitory fluorescence assay in vitro, B. divergens", "format": "cell-based, Babesia divergens", "method": "as §1, §2, §3"}, "[9]": {"tested_on": "B. microti small-subunit rRNA (ss-rRNA) gene", "test": "Nested PCR detection of B. microti DNA in blood of treated mice", "format": "in vivo, Babesia microti", "settings": "day 49, 25 mg/kg DA", "method": "(§6) The promising effect of CRY in vitro encouraged us to evaluate its in vivo effects against B. microti in mice. The assay was conducted in accordance with the previously described protocol. In two separate trials, 35 female 8-week-old BALB/c mice, housed under a pathogen-free environment with controlled humidity, temperature (22°C) and a 12 h light/ dark cycle were caged in seven groups, each group consisting of five mice. Six groups were i.p. injected with 0.5 ml of inoculum (1×10^7 B. microti iRBCs), while the seventh group was left uninfected and untreated to act as a negative control. When the average parasitemia in all infected mice reached approximately 1%, the 5-day drug treatment was initiated. The first and second groups were i.p. injected with 25 mg/kg body weight (BW) of DA and 5 mg/kg BW of CRY, respectively. The third group received 20 mg/kg BW of AQ orally, while the fourth and fifth groups were administered a combination of 2.5 mg/kg BW CRY + 12.5 mg/kg BW DA and 2.5 mg/kg BW CRY + 10 mg/kg AQ via a route similar to that of the single-drug treatment, respectively. The sixth group received 5% DMSO in physiological saline i.p. as a positive control. Parasitemia and hematology profiles (RBCs, hemoglobin (HGB), and HCT) were monitored every 2 and 4 days by microscopic examination and hematology analyzer (Celltac α MEK-6450, Nihon Kohden Corporation, Tokyo, Japan), respectively. On day 49, all mice were euthanized using an anesthesia system containing isoflurane and the blood was collected by cardiac puncture for PCR detection of the parasites.\nThe nested PCR (nPCR) that targeted the B. microti small-subunit rRNA (ss-rRNA) gene was performed in accordance with the previously described protocol and the genomic DNA was extracted from blood samples collected from all mice groups on day 49 post-infection (p.i.) using a QIAamp DNA Blood Mini Kit (Qiagen, Tokyo, Japan). PCR cycling conditions were performed as previously described and the bands with an expected size of 154 bp were considered positive."}, "[10]": {"tested_on": "B. microti", "test": "Chemotherapeutic effect against B. microti in mice (parasitemia)", "format": "in vivo, Babesia microti", "settings": "BALB/c mice, 25 mg/kg DA i.p.", "method": "Rodent B. microti (Munich strain) was recovered from -80°C stock and injected intraperitoneally (i.p.) in two 8-week-old female BALB/c mice purchased from CLEA Japan (Clea Japan, Tokyo, Japan). The mice were euthanized using an anesthesia system containing isoflurane after parasitemia reached approximately 30% and the blood was collected by cardiac puncture to conduct the in vivo studies.\nas §6"}}, "data": [{"molecule": "CC(C)/N=c1\\cc2n(-c3ccc(Cl)cc3)c3ccccc3nc-2cc1Nc1ccc(Cl)cc1", "note": "[CF, clofazimine]", "values": [{"measurement": "Selective index HFF", "setting": "[1]; EC50 HFF / IC50 B. bigemina", "value": "˃ 17.5"}, {"measurement": "Selective index MDBK", "setting": "[1]; EC50 MDBK / IC50 B. bigemina", "value": 6.1}, {"measurement": "Selective index NIH/3T3", "setting": "[1]; EC50 NIH/3T3 / IC50 B. bigemina", "value": "˃ 17.5"}, {"measurement": "Selective index HFF", "setting": "[2]; EC50 HFF / IC50 T. equi", "value": "˃ 34.7"}, {"measurement": "Selective index MDBK", "setting": "[2]; EC50 MDBK / IC50 T. equi", "value": 12.1}, {"measurement": "Selective index NIH/3T3", "setting": "[2]; EC50 NIH/3T3 / IC50 T. equi", "value": "˃ 34.7"}, {"measurement": "Selective index HFF", "setting": "[3]; EC50 HFF / IC50 B. bovis", "value": "˃ 12.1"}, {"measurement": "Selective index MDBK", "setting": "[3]; EC50 MDBK / IC50 B. bovis", "value": 4.2}, {"measurement": "Selective index NIH/3T3", "setting": "[3]; EC50 NIH/3T3 / IC50 B. bovis", "value": "˃ 12.1"}, {"measurement": "EC50", "setting": "[4]; Homo sapiens", "value": "> 100000", "unit": "nM"}, {"measurement": "EC50", "setting": "[5]; Bos taurus", "value": "34000 ± 3400", "unit": "nM"}, {"measurement": "EC50", "setting": "[5]", "value": "34700 ± 3400", "unit": "nM"}, {"measurement": "EC50", "setting": "[6]; Mus musculus, NIH3T3", "value": "> 100000", "unit": "nM"}, {"measurement": "Selective index HFF", "setting": "[7]; EC50 HFF / IC50 B. caballi", "value": "˃ 12.6"}, {"measurement": "Selective index MDBK", "setting": "[7]; EC50 MDBK / IC50 B. caballi", "value": 4.4}, {"measurement": "Selective index NIH/3T3", "setting": "[7]; EC50 NIH/3T3 / IC50 B. caballi", "value": "˃ 12.6"}, {"measurement": "Selective index HFF", "setting": "[8]; EC50 HFF / IC50 B. divergens", "value": "˃ 7.2"}, {"measurement": "Selective index MDBK", "setting": "[8]; EC50 MDBK / IC50 B. divergens", "value": 2.5}, {"measurement": "Selective index NIH/3T3", "setting": "[8]; EC50 NIH/3T3 / IC50 B. divergens", "value": "˃ 7.2"}]}, {"molecule": "CC(=O)NCC(=O)O.CC(=O)NCC(=O)O.N=C(N)c1ccc(N=NNc2ccc(C(=N)N)cc2)cc1", "note": "[DA, diminazene aceturate]", "values": [{"measurement": "IC50", "setting": "[1]; B. bigemina in vitro culture, fluorescence assay, 96 h", "value": "680 ± 0.09", "unit": "nM"}, {"measurement": "IC50", "setting": "[2]; T. equi in vitro culture, fluorescence assay, 96 h", "value": "710 ± 0.05", "unit": "nM"}, {"measurement": "IC50", "setting": "[3]; B. bovis in vitro culture, fluorescence assay, 96 h", "value": "350 ± 0.06", "unit": "nM"}, {"measurement": "parasite DNA in blood (nPCR)", "setting": "[9]", "value": "not detected"}, {"measurement": "inhibition of cell line at 100 μM", "setting": "[4]", "value": "did not show any inhibition"}, {"measurement": "EC50", "setting": "[4]", "value": "> 100000", "unit": "nM"}, {"measurement": "inhibition of cell line at 100 μM", "setting": "[5]", "value": "did not show any inhibition"}, {"measurement": "EC50", "setting": "[5]", "value": "> 100000", "unit": "nM"}, {"measurement": "inhibition of cell line at 100 μM", "setting": "[6]", "value": "did not show any inhibition"}, {"measurement": "EC50", "setting": "[6]", "value": "> 100000", "unit": "nM"}, {"measurement": "day p.i. on which parasitemia was undetectable by microscopy", "setting": "[10]", "value": 16, "unit": "days"}, {"measurement": "peak parasitemia level", "setting": "[10]; 5 days, day 10", "value": 8.5, "unit": "%"}, {"measurement": "IC50", "setting": "[7]; B. caballi in vitro culture, fluorescence assay, 96 h", "value": "22 ± 0.0002", "unit": "nM"}, {"measurement": "IC50", "setting": "[8]; B. divergens in vitro culture, fluorescence assay, 96 h, read-out: IC50", "value": "430 ± 0.05", "unit": "nM"}]}]}
